Among the data in ChEMBL document CHEMBL3507680, “University of Dundee, Gates Library screen for HepG2 cell viability” are cytotoxicity values, retold here.

This data set in a line: Human HepG2 cell viability assay in 384 well format. Type of data set: toxicity, cell-based. Further details: dose 125 nL, time 70.5 hour; cytotoxicity at 70.5 h: concentration not given beside the values. The following applies: HepG2 cells, read-out: Inhibition.

SMILES strings stand for the structures.

As to `Cc1cc(CN2CCC(CNS(=O)(=O)c3ccc(C)s3)CC2)c(C)o1`, the cytotoxicity at 70.5 h was -5.87%.
With `O=C(Oc1ccccc1)N1CCC(CNS(=O)(=O)c2cccnc2)CC1` the figure was 20.9%.
In the case of `COc1ccc(S(=O)(=O)NCCCc2ccc(N(C)C)cc2)cc1Cl`, the cytotoxicity at 70.5 h was -3.09%.
Take `O=C(Cc1ccc(F)cc1)NCC1CCN(Cc2ccsc2)CC1`: the cytotoxicity at 70.5 h is -3.3%.
On to `CCSc1ccccc1C(=O)NCC1CCN(Cc2ccsc2)CC1`, for which the cytotoxicity at 70.5 h is 2.8%.
As to `Cc1nnsc1C(=O)NCC1CCN(c2ccccn2)CC1`, the cytotoxicity at 70.5 h is -8.36%.
For the molecule `COC(=O)N1CCC(CNC(=O)C2CC2)CC1`, the cytotoxicity at 70.5 h was -18.1%.
With `O=C(CC1CCCC1)NCCS(=O)(=O)N1CCN(c2ncccn2)CC1` the figure was -11%; with `Cc1nnc2ccc(OCCNS(C)(=O)=O)nn12`, -0.867%.
As to `Cc1ccc(S(=O)(=O)NCCOc2ccc3nnc(C)n3n2)s1`, the cytotoxicity at 70.5 h was -14.5%.
Regarding `CCc1nnc2ccc(N3CCN(S(=O)(=O)c4ccc(Cl)s4)CC3)nn12`, the cytotoxicity at 70.5 h is -19%.
For the molecule `CCc1nnc2ccc(N3CCN(S(=O)(=O)c4ccc(C)s4)CC3)nn12`, the cytotoxicity at 70.5 h was -21.3%.
For `CN(C)C(CNS(=O)(=O)c1cc(F)ccc1F)c1cccn1C` (stereo not given), the cytotoxicity at 70.5 h is -11.3%.
Regarding `CCc1cc(=O)[nH]c(-n2nc(C3CC3)cc2NC(=O)C2CC2)n1`, the cytotoxicity at 70.5 h was 42.7%.
As for `Cc1nc(-n2nc(C3CC3)cc2NC(=O)C(C)C)[nH]c(=O)c1C`, the cytotoxicity at 70.5 h turned out to be 40.2%.
As to `CN(CC1(CO)CCCC1)C(=O)c1cc(COc2ccccc2F)[nH]n1`, the cytotoxicity at 70.5 h is -6.26%.
On to `Cc1ncccc1OC1(C(=O)NCCC2CCCN2C)CCNCC1` (stereo not given), for which the cytotoxicity at 70.5 h is 13.7%.
In the case of `CN(C)C(=O)N1C[C@@H]2CC[C@H](C1)N(C/C=C/c1ccc(F)cc1)C2`, the cytotoxicity at 70.5 h was -9.21%.
As to `O=C(O)CC[C@@H]1CN(c2ccncc2)CC[C@@H]1N1CCOCC1`, the cytotoxicity at 70.5 h is -3.32%.
The result for `CCN(CC)C(=O)[C@@H]1C[C@H](n2cc(-c3ccccn3)nn2)CN1` reads 12%.
The result for `COc1cccc([C@@H]2CCN(Cc3c[nH]c(C)n3)C[C@H]2O)c1` reads 17.7%; that for `CC1(COc2ccccc2)NCCc2[nH]cnc21` (stereo not given), -2.27%.
The result for `O=C(NCc1nncn1C1CCCCC1)C1COc2ccccc2C1` (stereo not given) reads -4%.
For `O[C@H]1CN(c2nc(-c3ccccc3)no2)C[C@@H]1N1CCOCC1`, the cytotoxicity at 70.5 h came to 6.13%.
`COc1cccc2c1OCC(NCCc1cnn(-c3ccccc3)c1)C2` (stereo not given): the cytotoxicity at 70.5 h was -8.4%.
As to `O=S1(=O)C[C@@H]2[C@H](C1)N(S(=O)(=O)N1CCCC1)CCN2Cc1ccccc1`, the cytotoxicity at 70.5 h was -5.47%.
Take `CCCc1nnc(N2CCC3(CC2)CC(=O)NC(=O)C3)o1`: the cytotoxicity at 70.5 h was 24.4%.
In the case of `Cc1ccc(C)c(C(=O)N2CCC3(CCC(=O)N(CC(N)=O)C3)CC2)c1`, the cytotoxicity at 70.5 h came to 29.9%.
Turning to `Cc1[nH]ccc1C(=O)N1CCN(C)C2(CCC(=O)N(C)CC2)C1` (stereo not given), the cytotoxicity at 70.5 h is -11.2%.
Turning to `CN(CC(=O)N1CC(C)(C)[C@](O)(C2CC2)C1)Cc1ccncc1`, the cytotoxicity at 70.5 h was -3.61%.
`Cc1ccccc1SC1CCN(C(=O)C2CNC(=O)N2)CC1` (stereo not given): the cytotoxicity at 70.5 h amounted to 2.9%.
For the molecule `O=C(NCCN1CCNC1=O)c1cnc(-c2cccnc2)nc1`, the cytotoxicity at 70.5 h was -3.28%.
In the case of `CNc1ncccc1C(=O)N1CCc2c(nc(N)[nH]c2=O)C1`, the cytotoxicity at 70.5 h is -3.13%.
Take `O=C(Cc1ccccc1C(F)(F)F)N1CCC2(CC1)OCCCC2O` (stereo not given): the cytotoxicity at 70.5 h was -16.7%.
In the case of `COCCCC1(CO)CCCN(Cc2nccs2)C1` (stereo not given), the cytotoxicity at 70.5 h was -7.41%.
With `CC(C)(C)CC(=O)NS(=O)(=O)c1ccc(C#N)cc1C(F)(F)F` the figure was 13.5%.
`COc1ccc(Cl)cc1NCC(=O)NCCNc1ncccn1`: the cytotoxicity at 70.5 h was -2.38%.
In the case of `Cn1ccnc1CN1CCN(CC(=O)NCc2ccccc2F)CC1`, the cytotoxicity at 70.5 h was 1.39%.
In the case of `Cn1ccnc1CN1CCN(CC(=O)NCc2cccs2)CC1`, the cytotoxicity at 70.5 h worked out at 13.9%.
Take `Cc1nnc(CN(Cc2ccc3c(c2)OCO3)C2CCCCC2)o1`: the cytotoxicity at 70.5 h is -2.59%.
With `Cc1nnc(CN(Cc2ccc3c(c2)OCO3)C2CCC(C)CC2)o1` (stereo not given) the figure was -1.97%; with `CCOc1ccnc(N2CCN(C(=O)c3ccn(C)c(=O)c3)CC2)n1`, -1.73%; with `Cc1cnn(CC2CCCN2Cc2nnc(C3CC3)o2)c1` (stereo not given), 13.5%.
Consider `Cc1ccccc1CNC(=O)C1CCN(Cc2nccn2C)CC1`, for which the cytotoxicity at 70.5 h was -0.376%.
For the molecule `COc1ccc(CNCC2CCN(c3ccccc3OC)C2)cc1O` (stereo not given), the cytotoxicity at 70.5 h came to 5.43%.
Consider `c1cc2c(cc1CN(Cc1nc(C3CC3)no1)C1CCCC1)OCO2`, for which the cytotoxicity at 70.5 h came to 6.65%.
As to `Cc1cccc(CN2CCC(N(C)Cc3nnc(C4CC4)n3C)C2)c1` (stereo not given), the cytotoxicity at 70.5 h was -1.59%.
In the case of `CN(Cc1nnc(C2CC2)n1C)C1CCN(Cc2ccncc2)C1` (stereo not given), the cytotoxicity at 70.5 h was -2.37%.
On to `CC(C)c1noc(C(C)N2CCN(CCCN3CCCC3=O)CC2)n1` (stereo not given), for which the cytotoxicity at 70.5 h was -0.928%.
The result for `Cc1ccc(NC2CCN(C(=O)C(C(C)C)n3cncn3)CC2)nn1` (stereo not given) reads -4.96%; that for `COc1ccc(CN(Cc2nc(C)no2)C2CCCCC2)cc1OC`, -1.31%; that for `CC(C(=O)N1CCC(Nc2cccnn2)CC1)n1cccn1` (stereo not given), 20.4%.
In the case of `Cc1nnc(C(C)N2CCCN(Cc3ccc(F)cc3)CC2)o1` (stereo not given), the cytotoxicity at 70.5 h was -2.19%.
`c1ccc(Cc2nnc(CN3CCCC3Cn3cccn3)o2)cc1` (stereo not given): the cytotoxicity at 70.5 h is -1.31%.
Turning to `Cc1nn(CC(C)C)c(N(C)C)c1CNCc1ccnn1C`, the cytotoxicity at 70.5 h came to 28.6%.
As to `CC(C(=O)N1CCCN(Cc2cnn(C(C)C)c2)CC1)n1ccnc1` (stereo not given), the cytotoxicity at 70.5 h came to 23.5%.
Turning to `Cc1cnn(C2CCCN(C(=O)CCCn3ccnc3C)C2)c1` (stereo not given), the cytotoxicity at 70.5 h is 19.3%.
As to `CC1COCCN1Cc1nc(-c2ccc(F)cc2)no1` (stereo not given), the cytotoxicity at 70.5 h is -0.197%.
In the case of `CC(C)n1cc(CN2CCCN(C(=O)CC3CCCCC3)CC2)cn1`, the cytotoxicity at 70.5 h was -0.435%.
For the molecule `Cc1nc(C)n(CC2CCCN(Cc3cccc(F)c3F)C2)n1` (stereo not given), the cytotoxicity at 70.5 h worked out at 2.26%.
As for `COc1cccc(CN2CCCC(Cn3nc(C)nc3C)C2)c1` (stereo not given), the cytotoxicity at 70.5 h is -1.83%.
As to `CC(C)c1cnc(CN2CCCC(c3cc(C(N)=O)[nH]n3)C2)o1` (stereo not given), the cytotoxicity at 70.5 h was determined as 2.28%.
`Cc1cnn(C2CCCN(C(=O)CCc3cscn3)C2)c1` (stereo not given): the cytotoxicity at 70.5 h is 2.26%.
As for `COc1c(CNCc2ccccc2Cn2ccnc2)c(C)nn1C`, the cytotoxicity at 70.5 h is -0.234%.
For the molecule `COc1c(CNCc2cccc(Cn3cccn3)c2)c(C)nn1C`, the cytotoxicity at 70.5 h is 3.69%.
For `CC(C(=O)NCc1ccc(N2CCCCCC2)nc1)n1cncn1` (stereo not given), the cytotoxicity at 70.5 h amounted to 3.18%.
For the molecule `CC(C(=O)NCc1ccc(N2CCCCC2)nc1)n1cncn1` (stereo not given), the cytotoxicity at 70.5 h was -3.82%.
With `Cc1cccc(-c2ccc(C(=O)NCC3CCCO3)c(=O)[nH]2)c1` (stereo not given), the cytotoxicity at 70.5 h was -10.2%.
For `COc1c(CNCc2ccc(Cn3ccnc3)cc2)c(C)nn1C`, the cytotoxicity at 70.5 h was found to be 0.712%.
The result for `Cc1cnn(C2CCCN(C(=O)CCNS(C)(=O)=O)C2)c1` (stereo not given) reads 24.7%; that for `CCc1nnc(CN2CCCC(c3cc(C(N)=O)[nH]n3)C2)o1` (stereo not given), -6.39%.
Turning to `CC(NCc1ccccc1Cl)c1ccc2[nH]c(=O)[nH]c2c1` (stereo not given), the cytotoxicity at 70.5 h is 7.48%.
As for `Cc1nn(CCO)c(C)c1CNCc1cccnc1N(C)C`, the cytotoxicity at 70.5 h was -4.11%.
With `Cc1n[nH]c(C)c1C1COCCN1C(=O)c1ccc(Cl)o1` (stereo not given) the figure was 18%.
In the case of `Cc1ncsc1C(=O)N(Cc1ccccn1)C1CC1`, the cytotoxicity at 70.5 h was found to be 10%.
On to `Cc1cc(CNc2cc(Cl)ccc2C)no1`, for which the cytotoxicity at 70.5 h was -11.6%.
For `Cc1cc(CNc2ccccc2Cl)no1`, the cytotoxicity at 70.5 h was -13.4%.
Take `CCC(N)c1ccccc1OCC(=O)N1CCCC1` (stereo not given): the cytotoxicity at 70.5 h is -7.75%.
Turning to `Cc1ccccc1CC(=O)N1CCOCC1c1c(C)n[nH]c1C` (stereo not given), the cytotoxicity at 70.5 h is -6.23%.
With `c1ccc(-n2nc(CNC3CCc4ncnn4C3)c3c2CCC3)cc1` (stereo not given), the cytotoxicity at 70.5 h was 9.35%.
On to `COc1ccccc1C(=O)N1CCOCC1c1c(C)n[nH]c1C` (stereo not given), for which the cytotoxicity at 70.5 h is -15.2%.
In the case of `CC(C)c1nnc(CN2CCCC(Cn3cncn3)C2)o1` (stereo not given), the cytotoxicity at 70.5 h was -7.64%.
As for `Cc1ncsc1C(=O)N(Cc1cccs1)C1CC1`, the cytotoxicity at 70.5 h is -16.1%.
`CCc1nc2n(n1)CC(NCc1cnn(-c3ccccc3)n1)CC2` (stereo not given): the cytotoxicity at 70.5 h was -9.79%.
As to `c1ncn(CC2CCCN(Cc3nnc(C4CC4)o3)C2)n1` (stereo not given), the cytotoxicity at 70.5 h stood at 11.5%.
As for `COc1ncccc1CNC(=O)c1cnccn1`, the cytotoxicity at 70.5 h is -12.4%.
`COc1ncccc1CNC(=O)c1cnc(C)cn1`: the cytotoxicity at 70.5 h was -3.16%.
On to `CCC(NC(=O)c1ccoc1)c1ccccc1OCC(=O)N1CCCC1` (stereo not given), for which the cytotoxicity at 70.5 h is -3.93%.
Regarding `Cc1ccccc1C1(C(=O)NCCN(C(C)C)C(C)C)CCOCC1`, the cytotoxicity at 70.5 h was -10%.
Take `O=C(NCCN1CCCC1)C1(c2ccc(Cl)cc2)CCOCC1`: the cytotoxicity at 70.5 h is -3%.
Regarding `Cc1ccc(NC(=O)C2CSCN2C(=O)c2cnsn2)c(C)c1` (stereo not given), the cytotoxicity at 70.5 h is -6.91%.
In the case of `Cc1ccc(NC(=O)C2CSCN2C(=O)c2ccncc2)c(C)c1` (stereo not given), the cytotoxicity at 70.5 h is -4.2%.
The result for `CC(C)c1ccc(OCCNC(=O)N2CCS(=O)(=O)CC2)cc1` reads -2.35%; that for `Cc1cnn(C2CCCN(C(=O)c3ccccc3-n3cnnn3)C2)c1` (stereo not given), -3.2%; that for `Cc1ccc(O)c(C(=O)N2CCOCC2c2c(C)n[nH]c2C)c1` (stereo not given), -1.53%.
As to `CCN(CCCNCc1c(C)nn(C)c1N(C)C)S(C)(=O)=O`, the cytotoxicity at 70.5 h is 4.83%.
As to `O=C(CCOc1ccccc1F)N1CCCC(n2cncn2)C1` (stereo not given), the cytotoxicity at 70.5 h turned out to be 6.03%.
Take `Cc1ccccc1OCCCC(=O)N1CCCC(n2cncn2)C1` (stereo not given): the cytotoxicity at 70.5 h was 13%.
`Cn1ccnc1N1CCN(C(=O)Cc2ccc(Cl)cc2)CC1`: the cytotoxicity at 70.5 h is -1.94%.
As to `Cc1cc(C(=O)N2CCN(C)CC2)nn1CC(=O)NCc1ccccn1`, the cytotoxicity at 70.5 h was -8.07%.
